In US20240051952A1, “HMOX1 INDUCERS” (Mitobridge Inc., priority 2019, published 2024):

Legend:
[1] = test system: Primary human pulmonary artery endothelial cells (HPAEC); experiment: Glutathione (GSH) levels in primary human endothelial cells under hemin stress; assay type: cell-based
Protocol: Example 149. Glutathione (GSH) Levels in Primary Human Endothelial Cells
Primary human pulmonary artery endothelial cells (HPAEC) (Lonza #CC-2530) cultured in endothelial cell growth medium-2 (EGM2 media, Lonza #CC-3162) were seeded in white 96-well plate (Corning® #3610) at 12.5 k cells per well and placed at 37° C. in 5% CO2. 18-24 hr post seeding, cells were treated with the compound of Example 17 via media change. 24 hr post treatment with the compound, cells were treated using a freshly prepared hemin stock (Sigma-Aldrich #51280 in 0.1N NaOH) alone or with the compound of Example 17. […] Media was aspirated off and GSH-Glo™ Glutathione Assay (Promega #V6911) was run following the manufacturer's protocol. White bottom plate seal (PerkinElmer #6005199) was used during read. Analysis was done using Softmax Pro.

HMOX1 gene = experiment: HMOX1 mRNA expression in HepG2 cells (Nanostring); assay type: cell-based, human; conditions: 24 hours treatment
Protocol: Example 147. HMOX1 Inducers of the Invention Strongly Increase In Vitro Expression of HMOX1
RNA Isolation and Quantification of Gene Expression
HepG2 cells were seeded at 250 k/well in 12-well tissue culture plates coated with collagen (collagen I, rat tail (thin plate coating); ENZO Life Sciences) for approximately 24 hours. The seeded cells were then treated with dose titration of the compound of Example 17 or dimethyl fumarate (DMF) (a Nrf2 activator; Fisher Scientific) via media change, with biological triplicates performed for each treatment. After approximately 24 hours of treatment, cells were visually inspected to confirm that no toxicity occurred with compound treatment. The treated cells were washed with PBS, aspirated, parafilmed and frozen at −80° C. prior to RNA isolation. RNA was isolated using Machery-Nagel isolation kit (NucleoSpin® RNA: catalog 740955.250) and then quantitated using ThermoFisher Nanodrop.
RNA was diluted for Nanostring gene expression analysis. […]
The relative mRNA levels of the HMOX1 gene in HepG2 cells treated with the compound of Example 17 or DMF were measured according to the methods described above. […]

Heme Oxygenase 1 (HO1) = experiment: PD study, HMOX1 protein levels in mouse plasma and liver (ELISA); assay type: in vivo; conditions: HMOX1 protein fold induction vs time-matched vehicle, 50 mpk oral
Protocol: 9-10 week old male C57BL/6 mice were dosed orally with 50 mg/kg of vehicle or compound formulated in 5% w/v tween 80 and 0.5% methyl cellulose. At indicated time points (3 and 6 hours or or 4 and 8 hours post-dosing as shown in the results below), whole blood was collected, animal was sacrificed and liver was collected. Blood samples were transferred to vials containing 4 μL of 10% w/v EDTA, centrifuged at 6000 rpm for 8 in below 10° C. to obtain plasma. Samples were frozen and later processed for HMOX1 protein levels as indicated below:
HMOX 1 Protein Levels: Mouse Liver
Preparation of Homogenization/Lysis Buffer
The homogenization buffer was prepared according Table A.
Immediately prior to use, add DTT (ThermoScientific #R0861) to a final concentration of 5 mM and 100×Halt Protease & Phosphatase Inhibitor Cocktail (ThermoScientific #78440) to a final concentration of 1×.
Preparation of Mouse Liver Samples
Liver samples were crushed by mortar and pestle under freezing conditions. Pulverized tissue was transferred into pre-chilled bead ruptor OMNI tubes (OMNI International, Cat #19-628). 1 mL of homogenization buffer (+DTT and HALT) was added to pulverized tissue and tubes were placed on ice. Samples were loaded and run through bead ruptor at speed 5.64 m/s, for two 20 sec cycles with 10 sec dwell between cycles and samples were immediately returned to ice. All material was transferred to a new chilled 2 mL Eppendorf tube. Samples were centrifuged for 5 minutes at 2,000 rpm at 4° C. Supernatant was transferred to a fresh chilled 1.7 mL Eppendorf tube. Samples were centrifuged for 5 minutes at 2,000 rpm at 4° C. The supernatant, consisting of cytosol and microsomes, was transferred to a fresh chilled 1.7 mL Eppendorf tube. Samples were stored at −80° C. Microsome samples were quantitated using Pierce 660 Assay (ThermoFisher Cat #22660) with pre-diluted BSA standards (ThermoFisher Cat #23208) ranging from 125-2000 μg/mL. Each sample was diluted to 10ng/ul for an ELISA input of 0.5ug in 50ul.
Preparation of Assay Reagents
All assay reagents were provided in the Heme Oxygenase 1 (HO1) Mouse SimpleStep ELISA Kit (Abcam #ab204524). Prior to use, all reagents were equilibrated to room temperature. 1×Wash Buffer PT was prepared by diluting 10×Wash Buffer PT 1:10 with deionized water. Antibody cocktail was prepared by diluting the 10×Capture Antibody and 10×Detector Antibody to 1×in Antibody Diluent 5BI. Mouse heme oxygenase 1 protein standard was reconstituted using 500ul homogenization buffer (Table A), mixed and held at room temperature for 10 minutes prior to dilution. An eight point standard curve was generated by diluting the Stock Standard 1:2 for standard curve ranging from 10,000-156.3 pg/mL.
Heme Oxygenase 1 (HO1) Mouse SimpleStep ELISA
50ul of all samples and standards were added to appropriate wells in duplicate. 50ul of 1×Antibody Cocktail was added to each well. The plate was sealed with provided seal and incubated at room temperature on a plate shaker at 400 rpm. After one hour incubation, the Antibody Cocktail was aspirated and the wells were washed three times with 350ul 1×Wash Buffer PT, aspirating completely between each step. After the last wash was aspirated dry, 100ul TMB Substrate was added to each well and the plate was incubated in the dark at room temperature for 10 minutes on a plate shaker at 400 rpm. After the 10 minute incubation, 100ul of Stop Solution was added to each well. Plate was shaken at 400 rpm for 1 minute to mix. Softmax Pro 7.0.3 was used to read OD at 450 nm as well as for analysis.
Heme Oxygenase 1 Protein Levels in Mouse Plasma
All assay reagents were provided in the Heme Oxygenase 1 (HO1) Mouse SimpleStep ELISA Kit (Abcam #ab204524). 1×Wash Buffer PT was prepared by diluting 10×Wash Buffer PT 1:10 with deionized water. Antibody cocktail was prepared by diluting the 10×Capture Antibody and 10×Detector Antibody to 1×in Antibody Diluent 5BI. […]

Cn1c(Nc2nc3ccccc3o2)nc2cc(C(=O)NCCOCCO)ccc21 [Example 17, 2-(benzo[d]oxazol-2-ylamino)-N-(2-(2-hydroxyethoxy)ethyl)-1-methyl-1H-benzo[d]imidazole-5-carboxamide]
GSH levels / protection from hemin mediated oxidative stress ([1]; 24 hr pre-incubation, 30 min hemin stress): protects these cells from hemin mediated oxidative stress
toxicity, visual inspection of cells ([1]; after 30 min of hemin stress): no toxicity being noted
HMOX1 expression, 30 μM compound of Example 17 relative to 250 μM DMF (HMOX1 gene): 4 times
HMOX1 expression compared with DMF (HMOX1 gene; mRNA fold change vs DMSO): much more strongly than DMF
Liver Protein (4 h) (Heme Oxygenase 1 (HO1); mouse liver, 4 hours (Study 702)): 3.3x*
Liver Protein (8 h) (Heme Oxygenase 1 (HO1); mouse liver, 8 hours (Study 702)): 3.1x*
Plasma Protein (4 h) (Heme Oxygenase 1 (HO1); mouse plasma, 4 hours (Study 702)): 1.7x*
Plasma Protein (8 h) (Heme Oxygenase 1 (HO1); mouse plasma, 8 hours (Study 702)): 1.1x*
